# Test results published in patent publication US9714240B2 (PharmAkea, Inc., priority 2013, dated 2017).
# Target: T1, human autotaxin (Homo sapiens, UniProt Q13822)
# T1 construct: Conditioned media is collected from confluent Hep3B cells and concentrated 20-fold; endogenous in cells; host or cells: Hep3B human hepatocellular carcinoma cells (concentrated conditioned medium)
# Test: Human Autotaxin Assay (choline release from LPC)
# Type: biochemical
# Conditions: ATX in concentrated conditioned media from Hep3B cells, substrate LPC 14:0 100 uM, absorbance at 555 nm
# Description: ATX activity is assayed in concentrated conditioned media from Hep3B human hepatocellular carcinoma cells by measuring the amount of choline released from the substrate, lysophosphatidylcholine (LPC) as it is cleaved to LPA. Conditioned media is collected from confluent Hep3B cells and concentrated 20-fold using Centriprep-30 filter devices (Millipore). To assay for autotaxin inhibition, 10-20 μL of the concentrated conditioned media is incubated with 2.5 μL of a test compound in DMSO and 72.5-82.5 μL lyso-PLD buffer (100 mM Tris pH 9, 500 mM NaCl, 5 mM MgCl2, 5 mM CaCl2, 0.05% Triton X-100 in the presence or absence of 0.2% fatty-acid-free human serum albumin) for 15 min at 37° C. After the 15 min incubation, 5 ul of 2 mM LPC (14:0; Avanti Polar Lipids Cat#855575C) diluted in lyso-PLD buffer is added for a final concentration of 100 uM and the incubation continues for 1.5-3 hours at 37° C. 100 μl of a color mix containing 4.5 mM 4-aminoantipyrine, 2.7 mM N-ethyl-N-(2-hydroxy-3-sulfopropyl)-m-toluidine, 21 units/ml horseradish peroxidase and 3 units/ml choline oxidase in 50 mM Tris, pH 8, 4.5 mM MgCl2 is added and the incubation continued for 15 minutes at room temperature before reading the absorbance at 555 nm.
row,SMILES,IC50 [nM]
1,"COc1ccc2c(/C=C(\C#N)c3ccc(C(=O)O)cc3)cn(Cc3ccc(OC)nc3)c2c1 [Compound 1-29, 4-[(Z)-1-cyano-2-[6-methoxy-1-[(6-methoxy-3-pyridyl)methyl]indol-3-yl]vinyl]benzoic Acid]",≤ 500
2,"N#C/C(=C\c1cn(Cc2ccc(OC(F)(F)F)cc2)c2cc(Cl)ccc12)c1ccc(C(=O)O)cc1 [Compound 1-45, (Z)-4-(2-(6-chloro-1-(4-(trifluoromethoxy)benzyl)-1H-indol-3-yl)-1-cyanovinyl)benzoic Acid]",500 to 10000
3,"N#C/C(=C\c1cn(Cc2ccc(F)cc2C(F)(F)F)c2cc(Cl)ccc12)c1ccc(C(=O)O)cc1 [Compound 1-46, (Z)-4-(2-(6-chloro-1-(4-fluoro-2-(trifluoromethyl)benzyl)-1H-indol-3-yl)-1-cyanovinyl)benzoic Acid]",> 10000
4,"N#C/C(=C\c1cn(Cc2ccc(OC(F)F)cc2F)c2cc(Cl)ccc12)c1ccc(C(=O)O)cc1 [Compound 1-47, (Z)-4-(2-(6-chloro-1-(4-(difluoromethoxy)-2-fluorobenzyl)-1H-indol-3-yl)-1-cyanovinyl)benzoic Acid]",500 to 10000
5,"N#C/C(=C\c1cn(Cc2ccc(OCC(F)(F)F)nc2)c2cc(Cl)ccc12)c1ccc(C(=O)O)cc1 [Compound 1-48, (Z)-4-(2-(6-chloro-1-((6-(2,2,2-trifluoroethoxy)pyridin-3-yl)methyl)-1H-indol-3-yl)-1-cyanovinyl)benzoic Acid]",> 10000
6,"N#C/C(=C\c1cn(Cc2ccc(F)cc2)c2c(F)c(Cl)ccc12)c1ccc(C(=O)O)cc1 [Compound 1-49, (Z)-4-(2-(6-chloro-7-fluoro-1-(4-fluorobenzyl)-1H-indol-3-yl)-1-cyanovinyl)benzoic Acid]",500 to 10000
7,COc1ccc(Cn2cc(/C=C(\C#N)c3ccc(C(=O)O)cc3)c3ccc(Cl)c(F)c32)cn1 [Compound 1-50],≤ 500
8,N#C/C(=C\c1cn(Cc2cnc(C(F)(F)F)s2)c2c(F)c(Cl)ccc12)c1ccc(C(=O)O)cc1 [Compound 1-52],≤ 500
9,"CCOc1ccc2c(/C=C(\C#N)c3ccc(C(=O)O)cc3)cn(Cc3ccc(F)cc3)c2c1 [Compound 1-65, (Z)-4-(1-cyano-2-(6-ethoxy-1-(4-fluorobenzyl)-1H-indol-3-yl)vinyl)benzoic Acid]",≤ 500
10,"N#C/C(=C\c1cn(Cc2ccc(F)cc2)c2cc([N+](=O)[O-])ccc12)c1ccc(C(=O)O)cc1 [Compound 1-66, (Z)-4-(1-cyano-2-(1-(4-fluorobenzyl)-6-nitro-1H-indol-3-yl)vinyl)benzoic Acid]",≤ 500
11,"CS(=O)(=O)c1ccc2c(/C=C(\C#N)c3ccc(C(=O)O)cc3)cn(Cc3ccc(F)cc3)c2c1 [Compound 1-67, (Z)-4-(1-cyano-2-(1-(4-fluorobenzyl)-6-(methylsulfonyl)-1H-indol-3-yl)vinyl)benzoic Acid]",500 to 10000
12,"N#C/C(=C\c1cn(Cc2ccc(F)cc2)c2cc(OC(F)(F)F)ccc12)c1ccc(C(=O)O)cc1 [Compound 1-75, (Z)-4-(1-cyano-2-(1-(4-fluorobenzyl)-6-trifluoromethoxy-1H-indol-3-yl)vinyl)benzoic Acid]",≤ 500
13,COc1ccc(Cn2cc(/C=C(\C#N)c3ccc(C(=O)O)cc3)c3ccc(OC(F)(F)F)cc32)cn1 [Compound 1-76],≤ 500
14,"N#C/C(=C\c1cn(Cc2cnc(C(F)(F)F)s2)c2cc(OC(F)(F)F)ccc12)c1ccc(C(=O)O)cc1 [Compound 1-77, (Z)-4-(1-cyano-2-(6-(trifluoromethoxy)-1-((2-(trifluoromethyl)thiazol-5-yl)methyl)-1H-indol-3-yl)vinyl)benzoic Acid]",≤ 500

# The remaining lines, values ahead:
row,IC50 [nM],SMILES
1,≤ 500,"N#C/C(=C\c1cn(Cc2ccc(F)cc2)c2cc(Cl)ccc12)c1ccc(C(=O)O)nc1 [Compound 2-2, 5-[(Z)-2-[6-chloro-1-[(4-fluorophenyl)methyl]indol-3-yl]-1-cyano-vinyl]pyridine-2-carboxylic Acid]"
2,≤ 500,"COc1ccc(Cn2cc(/C=C(\C#N)c3ccc(C(=O)O)nc3)c3ccc(Cl)cc32)cn1 [Compound 2-3, 5-[(Z)-2-[6-chloro-1-[(6-methoxy-3-pyridyl)methyl]indol-3-yl]-1-cyano-vinyl]pyridine-2-carboxylic Acid]"
3,500 to 10000,"N#C/C(=C\c1cn(Cc2ccccc2)c2cc(Cl)ccc12)c1cccc(C(=O)O)c1 [Compound 2-4, 3-[(Z)-2-(1-benzyl-6-chloro-indol-3-yl)-1-cyano-vinyl]benzoic Acid]"
4,≤ 500,"N#C/C(=C\c1cn(Cc2ccc(F)cc2)c2cc(Cl)ccc12)c1ccc(CC(=O)O)cc1 [Compound 2-25, (Z)-2-(4-(2-(6-chloro-1-(4-fluorobenzyl)-1H-indol-3-yl)-1-cyanovinyl)phenyl)acetic Acid]"
5,500 to 10000,N#C/C(=C\c1cn(Cc2ccc(F)cc2)c2cc(Cl)ccc12)c1cccc(C(=O)O)c1 [Compound 2-26]
